Source: the supplement of paper PMC11061612

Columns and labels:
[1] = test system: JVM-3 (B-Cell Non-Hodgkin's Lymphoma); experiment: combination Emax (second highest fraction inhibited in the dose matrix, 72 h); higher = more inhibition; extreme values may be limits of the assay
In short: (§1)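 After 24 hours at 37°C and 5% CO2 in 1536-well plates, cells in DMEM/F12 or RPMI plus 10% FBS received two-drug dose matrices for 72 hours. Viability came from CellTiter-Glo 2.0 luminescence and was scaled as inhibition, anchored at 0 by vehicle wells and at 1 by blank wells. Combination Emax is taken as the second-highest inhibition in the matrix, and Bliss excess as the observed combination effect less EA + EB − EA·EB, with EA and EB the single-agent effects.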

YH-13 (Glioblastoma) = experiment: Bliss excess, mean over the matrix (fraction); higher = more synergy
In short: as §1

[2] = test system: C-4-I (Cervical Carcinoma); experiment: as above
In short: as §1

[3] = test system: JVM-3 (B-Cell Non-Hodgkin's Lymphoma); experiment: as above
In short: as §1
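Throughout, for Bliss excess, mean over the matrix: after 72 h of two-drug dosing.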

| SMILES | combination Emax [1] | Bliss excess (YH-13 (Glioblastoma)) | Bliss excess [2] | Bliss excess [3] |
| --- | --- | --- | --- | --- |
| CC1(C)CCC(CN2CCN(c3ccc(C(=O)NS(=O)(=O)c4ccc(NCC5CCOCC5)c([N+](=O)[O-])c4)c(Oc4cnc5[nH]ccc5c4)c3)CC2)=C(c2ccc(Cl)cc2)C1 [Venetoclax] + CCN(CCO)CCCOc1ccc2c(Nc3cc(CC(=O)Nc4cccc(F)c4)[nH]n3)ncnc2c1 [AZD2811] (first compound max 1 µM, 7x7, partner max 1 µM) | 0.653 | -0.0428 | 0.0484 | 0.162 |
| C[C@@H]1COCCN1c1cc(C2([S@](C)(=N)=O)CC2)nc(-c2ccnc3[nH]ccc23)n1 [AZD6738] + O=C(c1cc(Cc2n[nH]c(=O)c3ccccc23)ccc1F)N1CCN(C(=O)C2CC2)CC1 [Olaparib] (first compound max 10 µM, 7x7, partner max 10 µM) | 0.704 | 0.0254 | -0.0144 | -0.0937 |
| CC1(C)CCC(CN2CCN(c3ccc(C(=O)NS(=O)(=O)c4ccc(NCC5CCOCC5)c([N+](=O)[O-])c4)c(Oc4cnc5[nH]ccc5c4)c3)CC2)=C(c2ccc(Cl)cc2)C1 [Venetoclax] + C[C@@H](Nc1cc(F)cc(F)c1)c1cc(C(=O)N(C)C)cc2c(=O)cc(N3CCOCC3)oc12 [AZD8186] (first compound max 1 µM, 7x7, partner max 3 µM) | 0.486 | -0.0336 | 0.0078 | -0.0619 |
| CC(=O)Nc1cccc(-n2c(=O)n(C3CC3)c(=O)c3c(Nc4ccc(I)cc4F)n(C)c(=O)c(C)c32)c1 [Trametinib] + Cc1nc(-c2cn3c(n2)-c2ccc(-c4cnn(C(C)(C)C(N)=O)c4)cc2OCC3)n(C(C)C)n1 [Taselisib] (first compound max 1 µM, 7x7, partner max 10 µM) | 0.734 | 0.0704 | 0.229 | -0.006 |
| CC1(C)CCC(CN2CCN(c3ccc(C(=O)NS(=O)(=O)c4ccc(NCC5CCOCC5)c([N+](=O)[O-])c4)c(Oc4cnc5[nH]ccc5c4)c3)CC2)=C(c2ccc(Cl)cc2)C1 [Venetoclax] + Cc1cc2ncnn2cc1Nc1ncc2c(n1)n(C1CCOCC1)c(=O)n2C [AZD7648] (first compound max 1 µM, 7x7, partner max 10 µM) | 0.64 | -0.0484 | 0.0131 | -0.0799 |
